Data from patent US11634378B2, “Compounds and methods targeting GPER in calcium disorders” (Saint Louis University, priority 2017, dated 2023).

What was measured:
GPER [1] = molecular target: T1, GPER (Homo sapiens, UniProt Q99527); assay: Calcium mobilization antagonism assay in indo1-AM-loaded HL-60 cells (against EC80 of G-1); format: cell-based; conditions: Table 3; HL-60 cells endogenously expressing GPER; mean ± SD of three IC50 values from triplicates; read-out: IC50 (nM) of the inhibition of calcium mobilization
T1 construct: HL-60 cells (a human promyelocytic leukemia cell line) which endogenously expresses GPER; host or cells: HL-60
Description: Human Myelocytic Leukemia (HL-60) cells were grown in phenol red free media containing 10% […] fetal bovine serum (FBS), 1% Pen-Strep, and 1% Glutamax. Cells were grown to no more than 1×10^6 cells/mL to prevent differentiation before being split. Prior to assay cells were transferred to phenol red free media containing charcoal-stripped FBS. On the day of the assay cells were centrifuged down at 16.4 G for 5 minutes and washed with 50:1 HBSS/HEPES. Cells were resuspended at 1×10^7 cells/mL in 50:1 HBSS/HEPES. To the resuspended cells, 0.05% pluronic acid and 5 uM of fluorescent calcium indicator, Indo-1AM, were added. The dye solution was incubated for 0.5 hrs at room temperature with rocking. After 30 minutes cells were spun down, and resuspended in 50:1 HBSS/HEPES. Cells were placed on ice for at least 5 minutes and then resuspended in 8.5 mL of 50:1 HBSS/HEPES (containing probenacid) for agonism assays or 6.5 mL of 50:1 HBSS/HEPES (containing probenacid) for antagonism assays. For agonism assays 160 μL of cell suspension were added to a 96-well plate and were incubated at 37° for 10 minutes in a FlexStation® 3 plate reader (Molecular Devices). Inside the plate reader, 40 μL of agonist were added to each well and excited with 350 nm and read at emissions of 405 nm and 490 nm. For antagonist assays, 120 μL of cell suspension were added to a 96-well plate. In addition to the cell suspension 40 μL of antagonist were added to the wells. Cells with antagonists were incubated at 37° for 15 minutes in FlexStation® 3 plate reader (Molecular Devices). Inside the plate reader, 40 μL of agonist at the EC80 were added to each well and excited with 350 nm and read at emissions of 405 nm and 490 nm.
In vitro biological evaluation using calcium mobilization. HL-60 cells were grown in 10% charcoal-stripped RPMI 72 hours before assays were performed. Cells were centrifuged and counted with a hemocytometer from Hausser Scientific (Bedford, Mass.). The assay required 100,000 cells per well, for a total number of cells on a 96-well plate assay of about 1×10 (Matthews and Gustafsson, 2003). HL-60 cells (1×10 (Matthews and Gustafsson, 2003)) were incubated in 50:1 Hanks balanced salt solution (Millipore Sigma, Saint Louis, Mo. and HEPES (Gibco by Life Technologies, Gaithersburg, Md.) containing 5 μM indo1-AM (Thermo Fischer Scientific, Waltham, Mass.) and 0.05% pluronic acid (AAT Bioquest Inc., Sunnyvale, Calif.) for 0.5 h at RT. Cells were spun down and washed with 50:1 HBSS/HEPES, and resuspended in media. Resuspension was placed on ice for no longer than 5 mins. Cells were loaded into plate at 100,000 cells/well. For agonist cells were immediately incubated for 15 mins at 37° C. Following the 15 mins incubation FlexStation 3 Multimode Plate Reader (Molecular Devices, Sunnyvale, Calif.) added the appropriate amount of agonist and was read for 150 seconds at 37° C. For antagonists once the cells were seeded, antagonist was added and incubated for 15 mins at 37° C. After 15 mins of equilibration, the EC80 of G-1 was added by the FlexStation and read for 150 secs at 37° C. Calcium mobilization was determined ratiometrically using λex 350 nm and λem 405/490 nm.

ERα = molecular target: T2, ERα (Homo sapiens, UniProt P03372); assay: ERα PolarScreen fluorescence polarization competitor assay; format: binding
T2 construct: purchased Invitrogen (Carlsbad, Calif.)
T2 sequence (P03372 1-595): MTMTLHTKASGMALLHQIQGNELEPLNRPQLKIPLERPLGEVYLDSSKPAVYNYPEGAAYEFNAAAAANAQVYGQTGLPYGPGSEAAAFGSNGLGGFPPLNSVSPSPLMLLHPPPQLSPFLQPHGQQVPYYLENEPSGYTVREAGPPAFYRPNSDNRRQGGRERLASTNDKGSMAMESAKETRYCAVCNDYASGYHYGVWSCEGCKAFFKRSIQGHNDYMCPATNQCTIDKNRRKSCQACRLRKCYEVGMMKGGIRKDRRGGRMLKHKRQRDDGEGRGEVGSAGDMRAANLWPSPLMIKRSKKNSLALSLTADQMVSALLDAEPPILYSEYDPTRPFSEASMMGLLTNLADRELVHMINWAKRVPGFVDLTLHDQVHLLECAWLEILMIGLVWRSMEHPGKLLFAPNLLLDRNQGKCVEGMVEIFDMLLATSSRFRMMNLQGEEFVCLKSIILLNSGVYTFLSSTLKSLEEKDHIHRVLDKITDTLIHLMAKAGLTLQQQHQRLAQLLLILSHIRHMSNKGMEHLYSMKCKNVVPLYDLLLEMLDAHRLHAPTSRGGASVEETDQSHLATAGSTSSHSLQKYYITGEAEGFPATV
Description: (§1) ERα and ERβ Fluorescence Polarization Assay. The ERα and ERβ PolarScreen™ Competitor Assays by Invitrogen (Carlsbad, Calif.) were purchased. The concentrations of the ERα and ERβ enzyme varied between the two assays. A 4× sample of ERα was prepared for a final concentration of 75 nM. Conversely, a 4× sample of ERβ was prepared for a final concentration of 23 nM within the assay. For both ERα and ERβ a 4× aliquot of Fluoromone was prepared for a final assay concentration of 4.5 nM. Despite the differences in concentration of ERα and ERβ, the binding assay protocol for the two different enzymes remained the same. Drug dilutions were prepared for a 2× dilution in the ER specific buffer that was provided within the assay kit. In addition to the drug dilutions a 2× aliquot of Fluoromone was prepared by adding 10 μL of 4× with 10 μL of ER specific buffer. A 2× dilution of enzyme and fluorophore was achieved by adding equal portions of each to each other. To a black 384-plate well plate, 10 μL of compound were added to the wells followed by 10 μL of the 2× mixture of enzyme and fluoromone. Two controls were included in the plate design. In one control, enzyme and compound were omitted so that only ER specific buffer and fluoromone remained. A separate control contained the enzyme and fluoromone control. […] The plate was incubated at RT for 2 hours before being read with λex 485 nm and λem 535 nm.

GPER [2] = molecular target: T1, GPER; assay: cAMP HTRF antagonism assay (G-1 induced inhibition of adenylate cyclase) in HL-60 cells; format: cell-based
Description: In vitro cAMP biological evaluation. A homogeneous time resolved fluorescence (HTRF®) components for cAMP was purchased by CisBio (Bedford, Mass.). HL-60 cells were grown in 10% charcoal-stripped RPMI media for 72 hours prior to assays. Cells were centrifuged and counted with a hemocytometer from Hausser Scientific (Horsham, Pa.). The total number of cells needed to complete the assay was determined based upon 8,000 cells/well. The determined number of cells was diluted in 5:1 (5×) stimulation buffer contain 500 μM of 3-isobutyl-1-methylxanthine (IBMX) (Sigma Aldrich, Saint Louis, Mo.). To an HTRF 96-well low volume white plate from CisBio, 5 μL of cold cell suspension was added to each plate, followed by 4 μL of (2.5×) of agonist or stimulation buffer (negative control and non-stimulated cells). Cells were covered with a clear plastic film and incubated at 37° C. for 15 mins in an incubator. After 15 mins cell 1 μL of 10 μM (10×) forskolin was added to each well. The plate was once again sealed and incubated at 37° C. for 15 mins. After 15 mins 5 μL of cAMP-d2 (acceptor) was added to all wells, including controls. Conversely, 5 μL of monoclonal anti-cAMP Eu3^+ cryptate (donor) was added to only the wells with test compound and non-stimulated cells. Following addition, the plate was sealed, covered with aluminum foil, and incubated at room temperature for 30 mins. After the allotted time cells were read using Flexstation3 and with λex 314 nm and λem 665 nm. For an antagonism platform the procedure was slightly altered. The EC80 of G-1 was recalculated based upon cAMP agonism results. To the plate, 2 μL of (5×) antagonist were added dose wise followed by the addition of 5 μL of cold cell suspension to all wells (top and bottom well were designated as G-1 control and forskolin control, respectively). Cells and antagonists were incubated for 15 mins at 37° C. After 15 mins, 2 μL of the (5×) EC80 of G-1 was added to wells with antagonist. […] Cells were allowed to equilibrate at room temperature for 30 minutes before being read at λex 314 nm and λem 665 nm.

ERβ = molecular target: T3, ERβ (Homo sapiens, UniProt Q92731); assay: ERβ PolarScreen fluorescence polarization competitor assay; format: binding; conditions: below 10 μM
T3 construct: purchased Invitrogen (Carlsbad, Calif.)
Description: as §1

T1 sequence (Q99527 whole entry): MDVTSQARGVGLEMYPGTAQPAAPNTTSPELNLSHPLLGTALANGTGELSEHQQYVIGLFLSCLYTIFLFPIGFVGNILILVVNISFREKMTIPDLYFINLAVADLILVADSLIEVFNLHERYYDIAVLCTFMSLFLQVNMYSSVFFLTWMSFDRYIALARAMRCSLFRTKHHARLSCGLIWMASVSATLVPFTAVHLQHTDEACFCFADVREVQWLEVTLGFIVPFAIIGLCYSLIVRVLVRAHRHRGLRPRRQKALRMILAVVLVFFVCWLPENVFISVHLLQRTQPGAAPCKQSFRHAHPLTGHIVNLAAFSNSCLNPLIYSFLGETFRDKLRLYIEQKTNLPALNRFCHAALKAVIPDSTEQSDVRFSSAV
T3 sequence (Q92731 whole entry): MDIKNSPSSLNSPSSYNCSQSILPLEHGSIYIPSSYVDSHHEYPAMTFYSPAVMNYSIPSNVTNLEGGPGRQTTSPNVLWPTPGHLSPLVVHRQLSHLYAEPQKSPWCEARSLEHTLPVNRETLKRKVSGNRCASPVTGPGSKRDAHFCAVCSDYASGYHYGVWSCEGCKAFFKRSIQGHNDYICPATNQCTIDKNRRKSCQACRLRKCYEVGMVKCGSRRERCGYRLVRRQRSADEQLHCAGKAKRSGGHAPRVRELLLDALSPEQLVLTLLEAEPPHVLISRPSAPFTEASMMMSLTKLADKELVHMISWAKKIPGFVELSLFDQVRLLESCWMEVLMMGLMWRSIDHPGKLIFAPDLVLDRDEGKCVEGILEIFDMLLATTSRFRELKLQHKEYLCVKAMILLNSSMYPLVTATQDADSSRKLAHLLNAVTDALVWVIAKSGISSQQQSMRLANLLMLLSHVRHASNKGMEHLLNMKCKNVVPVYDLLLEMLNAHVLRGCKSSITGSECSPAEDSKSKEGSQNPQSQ

Structure (SMILES)	IC50 (GPER [1]) [nM]	further results
CC(C)(C)c1ccc(NCc2ccccc2)c(C2CCCCC2)c1 [Compound 23]	331 ± 160	–
CC(C)c1ccc(NCc2ccc3ccccc3c2)c(C2CCCCC2)c1 [Compound 5]	260 ± 110	–
CC(C)(C)c1ccc(NCc2ccc(-c3ccccc3)cc2)c(C2CCCCC2)c1 [Compound 20]	132 ± 145	–
CC(C)(C)c1ccc(NCc2ccc(Cl)c(Cl)c2)c(C2CCCCC2)c1 [Compound 25]	657 ± 94	–

More lines, main results first:

IC50 (GPER [1]) [nM]	Structure (SMILES)	further results
874 ± 49	COc1ccc(CNc2ccc(C(C)(C)C)cc2C2CCCCC2)cc1 [Compound 22]	–
60.8 ± 18	Cc1ccc(CNc2ccc(C(C)(C)C)cc2C2CCCCC2)cc1 [Compound 21]	ERα binding (ERα; 10 μM (highest concentration)): a low level of binding; ERα binding (ERα; below 10 μM): do not exhibit binding; Antagonism of G-1 induced inhibition of adenylate cyclase (GPER [2]; 100 nM): also observed, less so; Antagonism of G-1 induced inhibition of adenylate cyclase (GPER [2]; 1 μM exposure): caused a decrease in adenylate cyclase inhibition; Reduction of G-1 induced inhibition of cAMP formation / adenylate cyclase (GPER [2]; EC80 of G-1, 1 μM forskolin, concentration not given): able to decrease inhibition of adenylate cyclase; ERβ binding (ERβ): do not exhibit binding
141 ± 14	CC(C)(C)c1ccc(NCc2ccc(Cl)cc2)c(C2CCCCC2)c1 [Compound 24]	–
